Test results reported in ChEMBL document CHEMBL1149053, “beta-Carbolines from the blue-green alga Dichothrix baueriana” (J Nat Prod, 1994).
Values after ≈ are worked out from the molar mass of the structure shown.

Key:
LoVo = assay: Cytotoxicity against human LoVo cells; assay type: functional, cell-based
Human alphaherpesvirus 2 = assay: Antiviral activity against HSV2 clinical isolate; assay type: functional

Row | SMILES | IC50 (LoVo) [µg/mL] | IC90 (Human alphaherpesvirus 2) [µg/mL]
1 | Cn1c2cnccc2c2ccc(Cl)cc21 [BAUERINE A] | 3 (≈ 13.8 µM) | 2 (≈ 9.23 µM)
2 | Cn1c2c(Cl)c(Cl)ccc2c2cc[nH]c(=O)c21 [BAUERINE C] | 0.03 (≈ 0.112 µM) | 2.5 (≈ 9.36 µM)
3 | Cn1c2cnccc2c2ccc(Cl)c(Cl)c21 [BAUERINE B] | 5 (≈ 19.9 µM) | 3 (≈ 11.9 µM)
